From patent publication US6911477B2, “Muscarinic receptor agonists” (Pfizer Inc., priority 1996, dated 2005)
Where a name gives a salt, the structure may show the parent alone.

## Cc1cccc(C)c1C(=Nc1ccc(F)cc1)NC(=Nc1ccc(Cl)cc1)N1CCCCC1C (stereo not shown) (as salt: hydrochloride) [Example 46, N-[(4-chloro-phenylimino)-(2-methyl-piperidin-1-yl)-methyl]-N′-(4-fluoro-phenyl)-2,6-dimethyl-benzamidine]
  melting point: 149 to 151 °C (dec.)

## Cc1ccccc1C(=NC(=Nc1ccncc1)N1CCCCC1C)Nc1ccc(F)cc1 (stereo not shown) (as salt: nitrate) [Example 40, N-(4-fluoro-phenyl)-2-methyl-N′-[(2-methyl-piperidin-1-yl)-(pyridin-4-ylimino)-methyl]-benzamidine]
  melting point: 209 to 210 °C (dec.)

## CC1CCCCN1C(=Nc1ccccc1)NC(=Nc1ccccc1)c1ccccc1 (stereo not shown) (as salt: hydroiodid) [Example 33, N-[(2-methyl-piperidin-1-yl)-phenylimino-methyl]-N′-phenyl-benzamidine]
  melting point: 180 to 182 °C

## c1ccc(N=C(N=C(Nc2ccccc2)c2ccccc2)N2CCCCC2)cc1 (as salt: hydroiodid) [Example 12, N-phenyl-N′-(phenylimino-piperidin-1-yl-methyl)-benzamidine]
  melting point: 198 to 200 °C (dec.)

## CC1CCCCN1C(N=C(Nc1ccc(F)cc1)c1c(Cl)cccc1Cl)=Nc1ccccc1 (stereo not shown) (as salt: hydrochloride) [Example 45, 2,6-dichloro-N-(4-fluoro-phenyl)-N′-[(2-methyl-piperidin-1-yl)-phenylimino-methyl]-benzamidine]
  melting point: 153 to 155 °C (dec.)

## Cc1cccc(C)c1C(=Nc1ccc(F)cc1)NC(=Nc1ccccc1)N1CCCCCC1 (as salt: hydrochloride) [Example 53, N-(azepan-1-yl-phenylimino-methyl)-N′-(4-fluoro-phenyl)-2,6-dimethyl-benzamidine]
  melting point: 243 to 245 °C

## Fc1ccc(NC(=NC(=Nc2ccccc2)N2CCCC2)c2ccccc2)cc1 (as salt: hydrochloride) [Example 2, N-(4-Fluoro-phenyl)-N′-(phenylimino-pyrrolidin-1-yl-methyl)-benzamidine]
  melting point: 259 to 260 °C (dec.)

## Cc1ccccc1C(=NC(=Nc1ccccc1)N1CCCC1)Nc1ccccc1 (as salt: hydrochloride) [Example 20, 2-methyl-N-phenyl-N′-(phenylimino-pyrrolidin-1-yl-methyl)-benzamidine]
  melting point: 191 to 192 °C

## OC1CCCN(C(=Nc2ccccc2)NC(=Nc2ccccc2)c2ccccc2)C1 (stereo not shown) (as salt: nitrate) [Example 38, N-[(3-hydroxy-piperidin-1-yl)-phenylimino-methyl]-N′-phenyl-benzamidine]
  melting point: 189 to 192 °C

## Cc1cccc(C)c1C(=Nc1ccc(F)cc1)NC(=Nc1ccccc1)N1C(C)CCCC1C (stereo not shown) (as salt: hydrochloride) [Example 59, N-[(2,6-dimethyl-piperidin-1-yl)-phenylimino-methyl]-N′-(4-fluoro-phenyl)-2,6-dimethyl-benzamidine]
  melting point: 165 to 167 °C (dec.)

## Cc1ccccc1C(=NC(=Nc1ccccc1)N1CCCCO1)Nc1ccc(F)cc1 (as salt: hydrochloride) [Example 42, N-(4-fluoro-phenyl)-2-methyl-N′-([1,2]oxazinan-2-yl-phenylimino-methyl)-benzamidine]
  melting point: 199 to 200 °C (dec.)

## COc1ccc(NC(=NC(=Nc2ccccc2)N2CCCCC2C)c2ccccc2C)cc1 (stereo not shown) (as salt: hydrochloride) [Example 60, N-(4-methoxy-phenyl)-2-methyl-N′-[(2-methyl-piperidin-1-yl)-phenylimino-methyl]-benzamidine]
  melting point: 162 to 164 °C (dec.)

## Cc1ccccc1N=C(N=C(Nc1ccc(F)cc1)c1c(C)cccc1C)N1CCCCC1C (stereo not shown) (as salt: hydrochloride) [Example 84, N-(4-fluoro-phenyl)-2,6-dimethyl-N′-[(2-methyl-piperidin-1-yl)-o-tolylimino-methyl]-benzamidine]
  melting point: 206 to 208 °C
